Three compounds from publication PMC8183095, “Uncovering the chemistry of C–C bond formation in C-nucleoside biosynthesis: crystal structure of a C-glycoside synthase/PRPP complex” (Chemical Communications (Cambridge, England), 2020) can be followed below.

Test [1] deals with T1, ForT (Streptomyces kaniharaensis, UniProt A0A5S9CYM0).
T1 sequence (A0A5S9CYM0 1-341): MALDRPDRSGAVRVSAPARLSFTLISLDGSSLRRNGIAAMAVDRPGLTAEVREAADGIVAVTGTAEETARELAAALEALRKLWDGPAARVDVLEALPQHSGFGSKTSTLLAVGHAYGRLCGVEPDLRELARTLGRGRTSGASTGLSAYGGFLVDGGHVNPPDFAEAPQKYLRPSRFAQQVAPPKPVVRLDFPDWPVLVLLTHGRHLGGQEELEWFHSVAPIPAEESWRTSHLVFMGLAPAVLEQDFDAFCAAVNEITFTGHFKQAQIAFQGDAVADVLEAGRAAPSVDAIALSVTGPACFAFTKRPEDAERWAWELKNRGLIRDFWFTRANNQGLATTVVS
Nature of the test: LCMS product detection; membrane-inlet mass spectrometry of CO2 production. In kind it is biochemical. More on the design: gene cof6; recombinant wild type, expressed in and purified from Escherichia coli; residues 11-171, 180-205, 209-341 (C-terminus) seen in the crystal; dimer in solution. The conditions noted are these: co-substrate PRPP; Mg2+ apparently needed.

The target of test [2] is ForT (wild type), C-glycoside synthase from Streptomyces kaniharaensis (Streptomyces kaniharaensis). Nature of the test: SEC-MALS; gel filtration and multi-angle light scattering of ForT in solution. A general note: In gel filtration, larger molecules generally elute earlier.
For test [3], the target named is T2, ForT (Streptomyces kaniharaensis, UniProt A0A5S9CYM0, G134P).
T2 construct: gene cof6
T2 sequence (A0A5S9CYM0 entry or part of it G134P): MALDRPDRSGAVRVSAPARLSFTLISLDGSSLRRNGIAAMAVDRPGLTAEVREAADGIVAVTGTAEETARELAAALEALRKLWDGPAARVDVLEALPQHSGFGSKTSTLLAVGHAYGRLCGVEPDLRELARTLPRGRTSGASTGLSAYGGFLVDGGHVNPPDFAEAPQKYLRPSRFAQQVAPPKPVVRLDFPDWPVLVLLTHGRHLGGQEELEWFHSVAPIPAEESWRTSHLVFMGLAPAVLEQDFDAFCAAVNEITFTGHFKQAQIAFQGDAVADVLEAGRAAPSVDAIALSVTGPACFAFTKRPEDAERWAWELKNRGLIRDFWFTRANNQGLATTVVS
Nature of the test: biochemical.

Test [4] has as its target T1, ForT. The experiment in a line: biochemical. Set-up: gene cof6.

Take `Nc1c(C(=O)O)n[nH]c1C(=O)O` [compound 5, 4-amino-1H-pyrazole-3,5-dicarboxylate]: the “LCMS product detection; membrane-inlet mass spectrometry of CO2 production” value in test [1] was “LCMS confirmed formation of the expected product when the enzyme was incubated with PRPP”.
Compound “ForT (wild type), C-glycoside synthase from Streptomyces kaniharaensis (enzyme)” yielded a stoichiometry N in test [2] of 2.
Regarding `O=P(O)(O)OC[C@H]1O[C@H](OP(=O)(O)OP(=O)(O)O)[C@H](O)[C@@H]1O` [compound 4, PRPP], the Kd was above 200 µM in test [3] and 4 µM in test [4].

Usually stoichiometry N stands for a count of units in the complex or per binding partner. Usually Kd stands for the concentration at which binding is half-saturated. The low end stands for a tighter complex, the high end for a looser complex.
